In assay [1] the test system is Enterococcus faecium isolates (n = 104). The assay can be described thus: Broth microdilution MIC, clinical isolate panel. In kind it is cell-based. The note with it: for MIC: read-out: Mode (MIC). As to the method: (§1) Comparator antibiotics were supplied by Micromyx, and stock solutions were prepared on the first day of testing using solvents recommended by CLSI (1). Stock solutions of all compounds were made at 40× the final testing concentration and stored at −80° C. prior to testing. Information regarding compound source, catalog and lot number, testing concentrations and drug diluent for the comparators and test agent are detailed below in Table 3.
(§2) The test organisms evaluated in this study consisted of clinical isolates from the Micromyx Repository and reference isolates from the American Type Culture Collection (ATCC; Manassas, Va.). The clinical isolates were obtained from USA hospitals. Upon initial receipt at Micromyx, the organisms were sub-cultured onto an appropriate agar medium. Following incubation, colonies were harvested from these plates and cell suspensions prepared and frozen at −80° C. with a cryoprotectant. Prior to testing, the isolates were streaked from frozen vials onto Trypticase Soy Agar with 5% sheep blood (Becton Dickenson [BD]; Sparks, Md.; Lot Nos. 7173618, 7166759, 7208688, 72144895, 7228505 and Remel Lenexa, Kans. Lot No. 212574). Plates were incubated at 35° C. overnight.
(§3) Mueller Hinton II broth (MHB II; BD; Lot Nos. 6258541 and 7143896) was used for MIC testing of aerobic organisms.
(§4) MIC values were determined using a broth microdilution procedure described by CLSI (1, 3). Automated liquid handlers (Multidrop 384, Labsystems, Helsinki, Finland; Biomek 2000 and Biomek FX, Beckman Coulter, Fullerton Calif.) were used to conduct serial dilutions and liquid transfers.
(§5) To prepare the drug mother plates, which would provide the serial drug dilutions for the replicate daughter plates, the wells of columns 2-12 of standard 96-well microdilution plates (Costar 3795) were filled with 150 μl of the designated diluent for each row of drug. The test articles and comparator compounds (300 μl at 40× the highest concentration to be tested) were dispensed into the appropriate wells in column 1. The Biomek 2000 was then used to make 2-fold serial dilutions in the mother plates from column 1 through column 11. The wells of Column 12 contained no drug and served as the organism growth control wells for the assay.
(§6) The daughter plates were loaded with 185 μL per well of MHB II using the Multidrop 384. The daughter plates were completed on the Biomek FX instrument which transferred 5 µL of drug solution from each well of a mother plate to the corresponding well of each daughter plate in a single step. A standardized inoculum of each test organism was prepared per CLSI methods (1). The inoculum for each organism was dispensed into sterile reservoirs divided by length (Beckman Coulter), and the Biomek 2000 was used to inoculate the plates. Daughter plates were placed on the Biomek 2000 work surface in reverse orientation so that inoculation took place from low to high drug concentration.
(§7) Plates were stacked 3-4 high, covered with a lid on the top plate, placed in plastic bags, and incubated at 35° C. for 16 to 20 hrs. Following incubation, the microplates were removed from the incubator and viewed from the bottom using a plate viewer. […] The MIC was read and recorded as the lowest concentration of drug that inhibited visible growth of the organism.
(§8) Clinical breakpoints to determine percent resistance within a given organism group were obtained from CLSI (3), with the exception of colistin for K. pneumoniae, Enterobacter spp., and E. coli, which are only available from EUCAST.
(In general: Dilution methods test growth across graded concentrations, often in twofold steps.)

Assay [2] has as its system Staphylococcus aureus isolates (n = 104). The experiment in a line: Broth microdilution MIC, clinical isolate panel. In kind it is cell-based. To be noted: Staphylococcus aureus (n = 104), all methicillin-resistant; for MIC: read-out: Mode (MIC). As to the method: as §1, §2, §3, §4, §5, §6, §7, §8

≈ marks a conversion by molar mass, not a printed value. Read-outs that look alike come from different tables or passages of the source.

Regarding `CCCCCCCCCC(=O)N[C@@H](Cc1c[nH]c2ccccc12)C(=O)N[C@H](CC(N)=O)C(=O)N[C@@H](CC(=O)O)C(=O)N[C@@H]1C(=O)NCC(=O)N[C@@H](CCCN)C(=O)N[C@@H](CC(=O)O)C(=O)N[C@H](C)C(=O)N[C@@H](CC(=O)O)C(=O)NCC(=O)N[C@H](CO)C(=O)N[C@@H]([C@H](C)CC(=O)O)C(=O)N[C@@H](CC(=O)c2ccccc2N)C(=O)O[C@@H]1C` [Daptomycin], in assay [1] (Enterococcus faecium (n = 104)), the MIC50 (as a rule, an inhibitory concentration at the 50% level, which refers to growth in some studies and to a panel of isolates in others) came out at 4 µg/mL (≈ 2.47 µM); the MIC90 (commonly the lowest concentration that inhibits either 90% of growth or 90% of the strains tested, depending on the study) was 8 µg/mL (≈ 4.94 µM); the MIC (as a rule, the least concentration at which growth counts as inhibited) is 2 µg/mL (≈ 1.23 µM). For the same compound, in assay [2], the MIC50 was found to be 0.5 µg/mL (≈ 0.309 µM), the MIC90 was 1 µg/mL (≈ 0.617 µM), the MIC range was 0.25 to 4 µg/mL and the MIC came out at 0.5 µg/mL (≈ 0.309 µM).
For the compound `CC(=O)NC[C@H]1CN(c2ccc(N3CCOCC3)c(F)c2)C(=O)O1` [Linezolid], the “% R (percent of isolates resistant, clinical breakpoints)” value in assay [1] (Enterococcus faecium (n = 104)) turned out to be 3.8%. In addition, the MIC in assay [1] (Enterococcus faecium) came to 2 µg/mL (≈ 5.93 µM). Further, in assay [2], the “% R (percent of isolates resistant, clinical breakpoints)” value turned out to be 1.9%; the MIC90 came out at 2 µg/mL (≈ 5.93 µM); the MIC was 2 µg/mL (≈ 5.93 µM).

The record behind these values is patent publication US20200071361A1, “ENGINEERED ANTIMICROBIAL AMPHIPHILIC PEPTIDES AND METHODS OF USE” (priority 2017, published 2020).
